Measurements from US20070004660A1, “Synergistic Modulation of Flt3 Kinase Using Alkylquinolines and Alkylquinazolines” (priority 2005, published 2007).

Biological target: T1, wild-type FLT3 receptor (Homo sapiens, UniProt P36888)
T1 construct: host or cells: Baf3 (murine B cell lymphoma line), stably transfected
T1 sequence (P36888 27-993): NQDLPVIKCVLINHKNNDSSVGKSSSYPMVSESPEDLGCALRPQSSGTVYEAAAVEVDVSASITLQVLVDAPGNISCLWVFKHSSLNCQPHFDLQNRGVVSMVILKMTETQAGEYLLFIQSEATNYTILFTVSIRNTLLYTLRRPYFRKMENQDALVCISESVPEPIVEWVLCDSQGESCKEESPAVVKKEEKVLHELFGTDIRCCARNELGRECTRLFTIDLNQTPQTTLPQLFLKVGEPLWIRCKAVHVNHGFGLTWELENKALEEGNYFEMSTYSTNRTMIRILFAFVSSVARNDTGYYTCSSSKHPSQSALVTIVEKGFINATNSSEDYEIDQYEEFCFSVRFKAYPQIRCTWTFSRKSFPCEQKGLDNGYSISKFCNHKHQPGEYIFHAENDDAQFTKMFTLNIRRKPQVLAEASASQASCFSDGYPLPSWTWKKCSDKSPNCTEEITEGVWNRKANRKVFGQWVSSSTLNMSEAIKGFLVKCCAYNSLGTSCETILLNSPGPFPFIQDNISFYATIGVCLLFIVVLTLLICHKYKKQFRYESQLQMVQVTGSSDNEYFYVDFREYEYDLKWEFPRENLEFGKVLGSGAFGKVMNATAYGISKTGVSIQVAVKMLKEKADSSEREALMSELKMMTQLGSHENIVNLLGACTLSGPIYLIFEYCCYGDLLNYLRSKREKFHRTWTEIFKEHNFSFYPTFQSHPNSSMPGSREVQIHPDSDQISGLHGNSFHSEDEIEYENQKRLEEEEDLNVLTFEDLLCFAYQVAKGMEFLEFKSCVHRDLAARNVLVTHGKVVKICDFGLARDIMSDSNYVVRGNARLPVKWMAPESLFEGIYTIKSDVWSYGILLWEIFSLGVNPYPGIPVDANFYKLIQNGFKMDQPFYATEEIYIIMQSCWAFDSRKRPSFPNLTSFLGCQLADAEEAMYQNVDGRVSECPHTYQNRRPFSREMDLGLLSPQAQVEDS
Assay: Cell-based FLT3 receptor ELISA (FLT ligand-induced phosphorylation in Baf3 FLT3 cells)
Settings: 100 ng/mL Flt ligand, uncertainty ±20%
Protocol: Specific cellular inhibition of FLT ligand-induced wild-type FLT3 phosphorylation was measured in the following manner: Baf3 FLT3 cells overexpressing the FLT3 receptor were obtained from Dr. Michael Heinrich (Oregon Health and Sciences University). The Baf3 FLT3 cell lines were created by stable transfection of parental Baf3 cells (a murine B cell lymphoma line dependent on the cytokine IL-3 for growth) with wild-type FLT3. Cells were selected for their ability to grow in the absence of IL-3 and in the presence of FLT3 ligand. Baf3 cells were maintained in RPMI 1640 with 10% FBS, penn/strep and 10 ng/ml FLT ligand at 37° C., 5% CO2. To measure direct inhibition of the wild-type FLT3 receptor activity and phosphorylation a sandwich ELISA method was developed similar to those developed for other RTKs (see Sadick, M D, Sliwkowski, M X, Nuijens, A, Bald, L, Chiang, N, Lofgren, J A, Wong W L T. Analysis of Heregulin-Induced ErbB2 Phosphorylation with a High-Throughput Kinase Receptor Activation Enzyme-Linked Immunsorbent Assay, Analytical Biochemistry. 1996; 235:207-214 and Baumann C A, Zeng L, Donatelli R R, Maroney A C. Development of a quantitative, high-throughput cell-based enzyme-linked immunosorbent assay for detection of colony-stimulating factor-1 receptor tyrosine kinase inhibitors. J Biochem Biophys Methods. 2004; 60:69-79.). 200 μL of Baf3FLT3 cells (1×10^6 /mL) were plated in 96 well dishes in RPMI 1640 with 0.5% serum and 0.01 ng/mL IL-3 for 16 hours prior to 1 hour compound or DMSO vehicle incubation. Cells were treated with 100 ng/mL Flt ligand (R&D Systems Cat# 308-FK) for 10 min. at 37° C. Cells were pelleted, washed and lysed in 100 ul lysis buffer (50 mM Hepes, 150 mM NaCl, 10% Glycerol, 1% Triton-X-100, 10 mM NaF, 1 mM EDTA, 1.5 mM MgCl2, 10 mM NaPyrophosphate) supplemented with phosphatase (Sigma Cat# P2850) and protease inhibitors (Sigma Cat #P8340). Lysates were cleared by centrifugation at 1000×g for 5 minutes at 4° C. Cell lysates were transferred to white wall 96 well microtiter (Costar #9018) plates coated with 50 ng/well anti-FLT3 antibody (Santa Cruz Cat# sc-480) and blocked with SeaBlock reagent (Pierce Cat#37527). Lysates were incubated at 4° C. for 2 hours. Plates were washed 3× with 200 ul/well PBS/0.1% Triton-X-100. Plates were then incubated with 1:8000 dilution of HRP-conjugated anti-phosphotyrosine antibody (Clone 4G10, Upstate Biotechnology Cat#16-105) for 1 hour at room temperature. Plates were washed 3× with 200 ul/well PBS/0.1% Triton-X-100. Signal detection with Super Signal Pico reagent (Pierce Cat#37070) was done according to manufacturer's instruction with a Berthold microplate luminometer. All data points are an average of triplicate samples. […] Inhibition and IC50 data analysis was done with GraphPad Prism using a non-linear regression fit with a multiparamater, sigmoidal dose-response (variable slope) equation.

| SMILES | IC50 [nM] |
| --- | --- |
| CN1CCN(CCCOc2ccc3c(C4CCN(C(=O)Nc5cnc(N6CCCC6)nc5)CC4)ncnc3c2)CC1 [Example 105, 4-{7-[3-(4-Methyl-piperazin-1-yl)-propoxy]-quinazolin-4-yl}-piperidine-1-carboxylic acid (2-pyrrolidin-1-yl-pyrimidin-5-yl)-amide] | 98 |
| CC(C)Oc1ccc(NC(=O)N2CCC(c3ccnc4ccccc34)CC2)cc1 [Example 6, 4-Quinolin-4-yl-piperidine-1-carboxylic acid (4-isopropoxy-phenyl)-amide] | 40 |
| O=C(Nc1ccc(N2CCOCC2)cc1)N1CCC(c2ncnc3cc(OCCCO)ccc23)CC1 [Example 77, 4-[7-(3-Hydroxy-propoxy)-quinazolin-4-yl]-piperidine-1-carboxylic acid (4-morpholin-4-yl-phenyl)-amide] | 98 |
| CN1CCN(CCCOc2ccc3c(C4CCN(C(=O)Nc5ccc(N6CCOCC6)cc5)CC4)ncnc3c2)CC1 [Example 73, 4-{7-[3-(4-Methyl-piperazin-1-yl)-propoxy]-quinazolin-4-yl}-piperidine-1-carboxylic acid (4-morpholin-4-yl-phenyl)-amide] | 92 |
| CN1CCN(CCCOc2ccc3c(C4CCN(C(=O)Nc5ccc(OC6CCCC6)nc5)CC4)ncnc3c2)CC1 [Example 82, 4-{7-[3-(4-Methyl-piperazin-1-yl)-propoxy]-quinazolin-4-yl}-piperidine-1-carboxylic acid (6-cyclopentyloxy-pyridin-3-yl)-amide] | 63 |
| O=C1CCCN1CCOc1ccc2c(C3CCN(C(=O)Nc4cnc(N5CCCC5)nc4)CC3)ncnc2c1 [Example 84, 4-{7-[2-(2-Oxo-pyrrolidin-1-yl)-ethoxy]-quinazolin-4-yl}-piperidine-1-carboxylic acid (2-pyrrolidin-1-yl-pyrimidin-5-yl)-amide] | 80 |
| COc1cc2ncnc(C3CCN(C(=O)Nc4ccc(-c5ccc(Cl)nc5)cc4)CC3)c2cc1OC [Example 60, 4-(6,7-Dimethoxy-quinazolin-4-yl)-piperidine-1-carboxylic acid [4-(6-chloro-pyridin-3-yl)-phenyl]-amide] | 46 |
| O=C(Nc1ccc(N2CCOCC2)cc1)N1CCC(c2ncnc3cc(OCCC4CCCCN4)ccc23)CC1 (stereo not shown) [Example 98, 4-[7-(2-Piperidin-2-yl-ethoxy)-quinazolin-4-yl]-piperidine-1-carboxylic acid (4-morpholin-4-yl-phenyl)-amide] | 86 |
| O=C1CCCN1CCCOc1ccc2c(C3CCN(C(=O)Nc4ccc(N5CCOCC5)cc4)CC3)ncnc2c1 [Example 68, 4-{7-[3-(2-Oxo-pyrrolidin-1-yl)-propoxy]-quinazolin-4-yl}-piperidine-1-carboxylic acid (4-morpholin-4-yl-phenyl)-amide] | 29 |
| CN1CCN(CCCOc2ccc3c(C4CCN(C(=O)Nc5ccc(N6CCCC6)nc5)CC4)ncnc3c2)CC1 [Example 104, 4-{7-[3-(4-Methyl-piperazin-1-yl)-propoxy]-quinazolin-4-yl}-piperidine-1-carboxylic acid (6-pyrrolidin-1-yl-pyridin-3-yl)-amide] | 16 |
| COc1cc2ncnc(C3CCN(C(=O)Nc4ccccc4)CC3)c2cc1OC [Example 45, 4-(6,7-Dimethoxy-quinazolin-4-yl)-piperidine-1-carboxylic acid phenylamide] | > 3000 |

Compounds with a lower IC50, results first:

| IC50 [nM] | SMILES |
| --- | --- |
| 3 | CC(C)Oc1ccc(NC(=O)N2CCC(c3ncnc4cc(OCCCN5CCCC5=O)ccc34)CC2)cc1 [Example 67, 4-{7-[3-(2-Oxo-pyrrolidin-1-yl)-propoxy]-quinazolin-4-yl}-piperidine-1-carboxylic acid (4-isopropoxy-phenyl)-amide] |
| 10 | COc1cc2ncnc(C3CCN(C(=O)Nc4ccc(OC(C)C)nc4)CC3)c2cc1OC [Example 56, 4-(6,7-Dimethoxy-quinazolin-4-yl)-piperidine-1-carboxylic acid (6-isopropoxy-pyridin-3-yl)-amide] |
| 7 | COc1cc2ncnc(C3CCN(CC(=O)Nc4ccc(C(C)C)cc4)CC3)c2cc1OC [Example 9, 2-[4-(6,7-Dimethoxy-quinazolin-4-yl)-piperidin-1-yl]-N-(4-isopropyl-phenyl)-acetamide] |
| 5 | COc1cc2ncnc(C3CCN(C(=O)Nc4ccc(C(C)(C)C)cc4)CC3)c2cc1OC [Example 53, 4-(6,7-Dimethoxy-quinazolin-4-yl)-piperidine-1-carboxylic acid (4-tert-butyl-phenyl)-amide] |
| 10 | CS(=O)(=O)N1CCN(CCCOc2ccc3c(C4CCN(C(=O)Nc5ccc(N6CCOCC6)cc5)CC4)ncnc3c2)CC1 [Example 118, 4-{7-[3-(4-Methanesulfonyl-piperazin-1-yl)-propoxy]-quinazolin-4-yl}-piperidine-1-carboxylic acid (4-morpholin-4-yl-phenyl)-amide] |
| 9 | CCN1CCN(CCCOc2ccc3c(C4CCN(C(=O)Nc5ccc(N6CCOCC6)cc5)CC4)ncnc3c2)CC1 [Example 115, 4-{7-[3-(4-Ethyl-piperazin-1-yl)-propoxy]-quinazolin-4-yl}-piperidine-1-carboxylic acid (4-morpholin-4-yl-phenyl)-amide] |
| 12 | O=C(Nc1ccc(N2CCCC2)nc1)N1CCC(c2ncnc3cc(OCCN4CCOC4=O)ccc23)CC1 [Example 92, 4-{7-[2-(2-Oxo-oxazolidin-3-yl)-ethoxy]-quinazolin-4-yl}-piperidine-1-carboxylic acid (6-pyrrolidin-1-yl-pyridin-3-yl)-amide] |
| 9 | CS(=O)(=O)NCCCOc1ccc2c(C3CCN(C(=O)Nc4ccc(N5CCCC5)nc4)CC3)ncnc2c1 [Example 86, 4-[7-(3-Methanesulfonylamino-propoxy)-quinazolin-4-yl]-piperidine-1-carboxylic acid (6-pyrrolidin-1-yl-pyridin-3-yl)-amide] |
| 8 | CC(C)Oc1ccc(NC(=O)N2CCC(c3ncnc4cc(N(C)C)ccc34)CC2)cc1 [Example 100, 4-(7-Dimethylamino-quinazolin-4-yl)-piperidine-1-carboxylic acid (4-isopropoxy-phenyl)-amide] |
| 10 | CN1CCC(COc2ccc3c(C4CCN(C(=O)Nc5ccc(N6CCCC6)cc5)CC4)ncnc3c2)CC1 [Example 109, 4-[7-(1-Methyl-piperidin-4-ylmethoxy)-quinazolin-4-yl]-piperidine-1-carboxylic acid (4-pyrrolidin-1-yl-phenyl)-amide] |
| 7 | CCC(C)c1ccc(NC(=O)N2CCC(c3ncnc4cc(OC)c(OC)cc34)CC2)cc1 (stereo not shown) [Example 52, 4-(6,7-Dimethoxy-quinazolin-4-yl)-piperidine-1-carboxylic acid (4-sec-butyl-phenyl)-amide] |
